Laboratory results as given in patent US9433603B2, “Use of 3-(R)-[3-(2-methoxyphenylthio)-2-(S)-methylpropyl]amino-3,4-dihydro-2H-1,5-benzoxathiepine for preventing and/or treating cardiotoxic effects caused by chemotherapy and/or radiation” (PIERRE FABRE MEDICAMENT, priority 2011, dated 2016).

Columns and labels:
[1] = Effect on normal functioning of the cardiovascular system (earlier work of the inventors); conditions: even in strong concentrations
rat cardiomyocytes = experiment: Rat cardiomyocyte culture with or without doxorubicin, cell suffering by LDH assay; type: cell-based; conditions: 48 hours
Method: The effects of 3-(R)-[3-(2-methoxyphenylthio)-2-(S)-methyl-propyl]amino-3,4-dihydro-2H-1,5-benzoxathiepine were assessed in the following cell model: rat cardiomyocytes were placed in culture either in the presence or in the absence of doxorubicin. After 48 hours, cell suffering was quantified by assay of the concentration of lactate dehydrogenase (LDH); LDH is […].

[2] = Cytotoxicity of the compound itself (statement, no method)

## COc1ccccc1SC[C@@H](C)CN[C@@H]1COc2ccccc2SC1 [3-(R)-[3-(2-methoxyphenylthio)-2-(S)-methyl-propyl]amino-3,4-dihydro-2H-1,5-benzoxathiepine]
[1]
  Effect on normal functioning of the cardiovascular system: does not affect the normal functioning of the cardiovascular system
Rat cardiomyocytes; compound at 10 μM, with doxorubicin
  Effect on the toxic effects of doxorubicin / viability of cardiomyocytes (LDH): significantly reduces the toxic effects of doxorubicin
[2]
  Cytotoxicity: not cytotoxic

## COc1cccc2c1C(=O)c1c(O)c3c(c(O)c1C2=O)C[C@@](O)(C(=O)CO)C[C@@H]3O[C@H]1C[C@H](N)[C@H](O)[C@H](C)O1 [doxorubicin, reference compound]
Rat cardiomyocytes; doxorubicin at 1 and 10 μM, comparable with Triton X-100
  Effect on viability of cardiomyocytes (LDH): significantly affects the viability of cardiomyocytes
